From patent US11427548B2 (Arvinas Operations, Inc., priority 2015, dated 2022)
Where two headings read alike, the source gives them in different places.

Experiments:
Androgen Receptor [1] = target: T1, Androgen Receptor (Homo sapiens, UniProt P10275+P40337, T878A); experiment: Androgen Receptor ELISA assay (PathScan AR ELISA) in LNCaP cells: AR degradation, Dmax and DC50; type: cell-based; settings: for DC50: concentration that caused 50% Androgen Receptor degradation
T1 construct: Compounds have been evaluated in this assay in LNCaP and/or VCaP cells utilizing similar protocols; endogenous in cells; host or cells: LNCaP cells

Androgen Receptor [2] = target: T2, Androgen Receptor (Homo sapiens, UniProt P10275); experiment: Androgen Receptor ELISA assay (PathScan AR ELISA) in VCaP cells: AR degradation, Dmax and DC50; type: cell-based
T2 construct: endogenous in cells; host or cells: VCaP cells
T2 sequence (P10275 1-920): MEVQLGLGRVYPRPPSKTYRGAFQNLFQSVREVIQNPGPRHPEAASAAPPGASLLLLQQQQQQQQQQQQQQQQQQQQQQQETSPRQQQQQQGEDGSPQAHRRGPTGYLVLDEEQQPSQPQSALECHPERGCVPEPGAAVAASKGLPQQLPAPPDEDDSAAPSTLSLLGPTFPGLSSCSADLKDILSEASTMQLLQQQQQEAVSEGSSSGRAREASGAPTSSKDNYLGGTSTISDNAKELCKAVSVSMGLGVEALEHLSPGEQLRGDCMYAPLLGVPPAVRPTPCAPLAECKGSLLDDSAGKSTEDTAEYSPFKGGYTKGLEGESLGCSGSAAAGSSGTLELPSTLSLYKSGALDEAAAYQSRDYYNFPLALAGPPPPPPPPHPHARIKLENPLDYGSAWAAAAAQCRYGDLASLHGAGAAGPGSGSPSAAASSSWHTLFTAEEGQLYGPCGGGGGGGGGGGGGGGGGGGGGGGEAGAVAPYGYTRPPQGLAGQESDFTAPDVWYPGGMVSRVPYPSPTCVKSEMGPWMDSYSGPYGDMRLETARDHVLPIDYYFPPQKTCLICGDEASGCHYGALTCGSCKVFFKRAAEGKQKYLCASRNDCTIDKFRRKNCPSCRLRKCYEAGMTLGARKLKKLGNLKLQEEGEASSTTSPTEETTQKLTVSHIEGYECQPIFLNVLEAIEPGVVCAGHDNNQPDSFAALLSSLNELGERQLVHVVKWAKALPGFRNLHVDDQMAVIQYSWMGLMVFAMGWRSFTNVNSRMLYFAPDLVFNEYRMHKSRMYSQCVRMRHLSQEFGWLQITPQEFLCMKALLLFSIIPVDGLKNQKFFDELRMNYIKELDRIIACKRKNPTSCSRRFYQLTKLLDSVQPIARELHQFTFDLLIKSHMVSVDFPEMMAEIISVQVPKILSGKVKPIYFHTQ
Procedure, shortened: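 VCaP cells, 30,000/well, grown ≥3 days in phenol red-free RPMI with 5% charcoal-stripped FBS; compound added in 0.1% DMSO with 0.1 nM R1881, 7 half-log doses, 24 h. Lysate AR quantified by PathScan sandwich ELISA, HRP/TMB read at 450 nm, giving DC50 and Dmax.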

[3] = highest percentage of Androgen Receptor degradation observed
[4] = read-out: VCaP DC50; concentration that caused 50% Androgen Receptor degradation, VCaP cells
[5] = concentration that caused 50% Androgen Receptor degradation, VCaP cells; read-out: VCaP DC50
[6] = highest percentage of Androgen Receptor degradation

T1 sequence (P10275 whole entry T878A): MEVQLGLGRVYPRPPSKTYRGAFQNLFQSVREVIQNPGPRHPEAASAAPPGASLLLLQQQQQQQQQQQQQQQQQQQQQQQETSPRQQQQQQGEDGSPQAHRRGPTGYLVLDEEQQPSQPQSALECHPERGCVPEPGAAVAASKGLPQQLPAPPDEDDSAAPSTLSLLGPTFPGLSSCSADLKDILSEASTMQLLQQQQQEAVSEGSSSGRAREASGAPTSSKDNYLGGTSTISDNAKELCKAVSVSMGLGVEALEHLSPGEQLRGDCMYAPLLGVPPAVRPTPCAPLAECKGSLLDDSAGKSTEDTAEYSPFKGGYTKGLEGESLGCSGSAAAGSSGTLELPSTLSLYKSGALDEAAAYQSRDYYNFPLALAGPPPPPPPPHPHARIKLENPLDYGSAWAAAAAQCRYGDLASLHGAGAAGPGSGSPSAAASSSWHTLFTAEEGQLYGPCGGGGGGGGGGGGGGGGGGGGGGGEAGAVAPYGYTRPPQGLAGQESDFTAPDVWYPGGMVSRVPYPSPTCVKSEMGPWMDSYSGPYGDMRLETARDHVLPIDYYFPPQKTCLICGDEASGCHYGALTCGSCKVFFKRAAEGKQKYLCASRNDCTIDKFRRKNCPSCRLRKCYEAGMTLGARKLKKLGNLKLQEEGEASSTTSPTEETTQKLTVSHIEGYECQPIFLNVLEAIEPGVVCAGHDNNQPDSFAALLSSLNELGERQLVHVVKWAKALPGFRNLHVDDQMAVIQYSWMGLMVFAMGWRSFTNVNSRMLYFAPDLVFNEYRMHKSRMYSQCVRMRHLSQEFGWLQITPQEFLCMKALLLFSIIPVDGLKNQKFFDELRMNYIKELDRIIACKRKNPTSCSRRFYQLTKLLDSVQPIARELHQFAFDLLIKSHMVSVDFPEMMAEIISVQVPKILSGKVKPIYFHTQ
T1 sequence (P40337 whole entry): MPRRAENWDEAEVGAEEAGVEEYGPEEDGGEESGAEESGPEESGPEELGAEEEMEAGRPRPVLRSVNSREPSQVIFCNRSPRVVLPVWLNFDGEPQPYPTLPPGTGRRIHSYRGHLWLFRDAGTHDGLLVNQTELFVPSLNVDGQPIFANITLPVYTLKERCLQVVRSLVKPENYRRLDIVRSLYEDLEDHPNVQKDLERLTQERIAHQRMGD
T1 sequence (Q15369 whole entry partner): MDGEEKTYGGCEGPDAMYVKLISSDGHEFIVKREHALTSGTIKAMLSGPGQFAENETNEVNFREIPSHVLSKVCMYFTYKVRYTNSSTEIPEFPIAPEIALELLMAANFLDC
T1 sequence (Q15370 whole entry partner): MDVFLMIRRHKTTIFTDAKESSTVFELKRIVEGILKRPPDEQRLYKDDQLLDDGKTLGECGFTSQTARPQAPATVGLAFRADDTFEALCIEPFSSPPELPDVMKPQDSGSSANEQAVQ

SMILES	DC50 (Androgen Receptor [1]) [nM]	Dmax (Androgen Receptor [1]; [3]) [%]	Dmax (Androgen Receptor [2]; VCaP, read-out: VCaP Dmax (%)) [%]	DC50 (Androgen Receptor [2]; [4]) [nM]	DC50 (Androgen Receptor [2]; [5]) [nM]	Dmax (Androgen Receptor [1]; [6]) [%]	DC50 (Androgen Receptor [2]; read-out: VCaP DC50; VCaP cells; concentration that caused 50% Androgen Receptor degradation) [nM]	Dmax (Androgen Receptor [2]; VCaP, highest percentage of Androgen Receptor degradation observed, VCaP cells; read-out: VCaP Dmax (%)) [%]
Cc1ncsc1-c1ccc(CNC(=O)[C@@H]2C[C@@H](O)CN2C(=O)[C@@H](NC(=O)COCCCOCCCCOc2ccc(N3C(=S)N(c4ccc(C#N)c(C(F)(F)F)c4)C(=O)C3(C)C)cc2)C(C)(C)C)cc1 [Example 28, (2S,4R)-1-[(2S)-2-(2-{3-[4-(4-{3-[4-cyano-3-(trifluoromethyl)phenyl]-5,5-dimethyl-4-oxo-2-sulfanylideneimidazolidin-1-yl}phenoxy)butoxy]propoxy}acetamido)-3,3-dimethylbutanoyl]-4-hydroxy-N-{[4-(4-methyl-1,3-thiazol-5-yl)phenyl]methyl}pyrrolidine-2-carboxamide]	< 50	> 71	51 to 70	< 50	–	–	–	–
Cc1ncsc1-c1ccc(CNC(=O)[C@@H]2C[C@@H](O)CN2C(=O)[C@@H](NC(=O)COCCCOCCCCCOc2ccc(N3C(=S)N(c4cnc(C#N)c(C(F)(F)F)c4)C(=O)C3(C)C)cc2)C(C)(C)C)cc1 [Example 2, (2S,4R)-1-((S)-2-(2-(3-(5-(4-(3-(6-cyano-5-(trifluoromethyl)pyridin-3-yl)-5,5-dimethyl-4-oxo-2-thioxoimidazolidin-1-yl)phenoxy)pentyloxy)propoxy)acetamido)-3,3-dimethylbutanoyl)-4-hydroxy-N-(4-(4-methylthiazol-5-yl)benzyl)pyrrolidine-2-carboxamide]	–	> 71	51 to 70	–	< 50	–	–	–
Cc1ncsc1-c1ccc(CNC(=O)[C@@H]2C[C@@H](O)CN2C(=O)[C@@H](NC(=O)COCCCCCOc2ccc(-c3ccc(N4C(=S)N(c5ccc(C#N)c(C(F)(F)F)c5)C(=O)C4(C)C)cc3)cc2)C(C)(C)C)cc1 [Example 71, (2S,4R)-1-[(2S)-2-[2-({5-[4-(4-{3-[4-cyano-3-(trifluoromethyl)phenyl]-5,5-dimethyl-4-oxo-2-sulfanylideneimidazolidin-1-yl}phenyl)phenoxy]pentyl}oxy)acetamido]-3,3-dimethylbutanoyl]-4-hydroxy-N-{[4-(4-methyl-1,3-thiazol-5-yl)phenyl]methyl}pyrrolidine-2-carboxamide]	< 50	> 71	51 to 70	< 50	–	–	–	–
Cc1ncsc1-c1ccc(CNC(=O)[C@@H]2C[C@@H](O)CN2C(=O)[C@@H](NC(=O)COCCCOCCOc2cccc(-c3ccc(N4C(=S)N(c5ccc(C#N)c(C(F)(F)F)c5)C(=O)C4(C)C)cc3)c2)C(C)(C)C)cc1 [Example 288]	< 50	–	26 to 50	–	–	> 71	< 50	–
Cc1ncsc1-c1ccc(CNC(=O)[C@@H]2C[C@@H](O)CN2C(=O)[C@@H](NC(=O)CCOc2ccc(CCOc3ccc(N4C(=S)N(c5ccc(C#N)c(C(F)(F)F)c5)C(=O)C4(C)C)cc3)cc2)C(C)(C)C)cc1 [Example 306]	< 50	–	51 to 70	–	–	> 71	–	–
Cc1ncsc1-c1ccc(CNC(=O)[C@@H]2C[C@@H](O)CN2C(=O)[C@@H](NC(=O)COCCCCOC2CCN(C(=O)c3ccc(N4C(=S)N(c5ccc(C#N)c(C(F)(F)F)c5)C(=O)C4(C)C)cc3)CC2)C(C)(C)C)cc1 [Example 293]	51 to 500	–	< 25	–	–	51 to 70	–	–
Cc1ncsc1-c1ccc(CNC(=O)[C@@H]2C[C@@H](O)CN2C(=O)[C@@H](NC(=O)COCCCOCCCCOc2ccc(N3C(=S)N(c4cnc(C#N)c(C(F)(F)F)c4)C(=O)C3(C)C)cc2)C(C)(C)C)cc1 [Example 30, (2S,4R)-1-[(2S)-2-(2-{3-[4-(4-{3-[6-cyano-5-(trifluoromethyl)pyridin-3-yl]-5,5-dimethyl-4-oxo-2-sulfanylideneimidazolidin-1-yl}phenoxy)butoxy]propoxy}acetamido)-3,3-dimethylbutanoyl]-4-hydroxy-N-{[4-(4-methyl-1,3-thiazol-5-yl)phenyl]methyl}pyrrolidine-2-carboxamide]	< 50	> 71	–	–	< 50	–	–	> 71
